Holding throughout (format): cell-based
The target of test [1] is T1, BmOr-1-BmOrco (Bombyx mori, UniProt Q5WA61).
T1 construct: full-length cRNAs from modified pSPUTK vector, co-injected (25 ng each) in Xenopus laevis oocytes; heteromer of unknown stoichiometry; with Odorant receptor coreceptor
T1 sequence (Q5WA61 1-430): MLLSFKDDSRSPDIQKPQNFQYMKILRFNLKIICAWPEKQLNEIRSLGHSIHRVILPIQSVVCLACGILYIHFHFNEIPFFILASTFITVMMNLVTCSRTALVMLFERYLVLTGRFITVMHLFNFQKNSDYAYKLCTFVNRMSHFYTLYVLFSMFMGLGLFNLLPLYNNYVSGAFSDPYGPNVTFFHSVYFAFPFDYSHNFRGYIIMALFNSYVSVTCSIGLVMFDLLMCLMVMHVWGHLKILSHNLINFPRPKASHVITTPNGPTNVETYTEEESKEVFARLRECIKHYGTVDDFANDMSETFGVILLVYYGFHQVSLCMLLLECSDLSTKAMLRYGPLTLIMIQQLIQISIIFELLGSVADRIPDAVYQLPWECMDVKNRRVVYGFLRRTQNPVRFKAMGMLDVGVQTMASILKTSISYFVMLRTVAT
T1 sequence (Q7YT34 1-472 partner): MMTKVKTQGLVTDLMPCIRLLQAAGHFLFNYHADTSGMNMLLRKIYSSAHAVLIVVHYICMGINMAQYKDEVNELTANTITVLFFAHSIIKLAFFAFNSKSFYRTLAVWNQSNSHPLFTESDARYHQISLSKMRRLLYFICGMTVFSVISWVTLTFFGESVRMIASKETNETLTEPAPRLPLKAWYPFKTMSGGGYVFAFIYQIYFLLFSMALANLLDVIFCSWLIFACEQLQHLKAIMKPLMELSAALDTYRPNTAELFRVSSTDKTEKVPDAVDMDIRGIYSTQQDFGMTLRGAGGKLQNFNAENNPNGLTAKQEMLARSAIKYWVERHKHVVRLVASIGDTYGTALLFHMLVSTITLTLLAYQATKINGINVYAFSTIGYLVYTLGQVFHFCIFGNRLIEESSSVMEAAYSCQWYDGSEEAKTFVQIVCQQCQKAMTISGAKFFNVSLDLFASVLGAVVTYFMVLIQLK
The experiment in a line: two-electrode voltage clamp, Xenopus oocytes, dose-response.

The target of test [2] is T2, BmOr-1-BmOrco (Bombyx mori, UniProt Q5WA61, E356C).
T2 construct: full-length cRNAs from modified pSPUTK vector, co-injected (25 ng each) in Xenopus laevis oocytes; heteromer of unknown stoichiometry; with Odorant receptor coreceptor
T2 sequence (Q5WA61 1-430 E356C): T1 sequence (Q5WA61 1-430) with E356C
T2 sequence (Q7YT34 1-472 partner): T1 sequence (Q7YT34 1-472 partner)
The description is as above.

Test [3] concerns the target T1, BmOr-1-BmOrco. The experiment in a line: two-electrode voltage clamp, Xenopus oocytes, bombykol response after MTSET. Conditions: covalent; Cys modification of native Cys suggested; 60 s pretreatment; bombykol 1 µM. On the technique in general: In two-electrode clamp one electrode senses voltage and the other passes current.
Test [4] has as its target T3, Or22a with Drosophila Orco (Drosophila melanogaster, UniProt P81909).
T3 construct: full-length cRNAs co-injected in Xenopus laevis oocytes; heteromer of unknown stoichiometry; with Odorant receptor coreceptor
T3 sequence (P81909 1-397): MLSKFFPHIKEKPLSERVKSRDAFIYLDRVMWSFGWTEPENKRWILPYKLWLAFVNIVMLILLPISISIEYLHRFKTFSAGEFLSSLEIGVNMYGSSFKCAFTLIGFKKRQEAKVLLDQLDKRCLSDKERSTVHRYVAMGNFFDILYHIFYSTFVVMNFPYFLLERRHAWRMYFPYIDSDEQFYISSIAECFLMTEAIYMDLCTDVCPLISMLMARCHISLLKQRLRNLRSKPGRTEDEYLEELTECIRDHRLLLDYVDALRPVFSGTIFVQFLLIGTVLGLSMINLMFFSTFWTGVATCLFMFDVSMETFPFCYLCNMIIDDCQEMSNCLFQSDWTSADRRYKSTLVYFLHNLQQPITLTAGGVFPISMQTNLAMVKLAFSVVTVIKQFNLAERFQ
T3 sequence (Q9VNB5 1-486 partner): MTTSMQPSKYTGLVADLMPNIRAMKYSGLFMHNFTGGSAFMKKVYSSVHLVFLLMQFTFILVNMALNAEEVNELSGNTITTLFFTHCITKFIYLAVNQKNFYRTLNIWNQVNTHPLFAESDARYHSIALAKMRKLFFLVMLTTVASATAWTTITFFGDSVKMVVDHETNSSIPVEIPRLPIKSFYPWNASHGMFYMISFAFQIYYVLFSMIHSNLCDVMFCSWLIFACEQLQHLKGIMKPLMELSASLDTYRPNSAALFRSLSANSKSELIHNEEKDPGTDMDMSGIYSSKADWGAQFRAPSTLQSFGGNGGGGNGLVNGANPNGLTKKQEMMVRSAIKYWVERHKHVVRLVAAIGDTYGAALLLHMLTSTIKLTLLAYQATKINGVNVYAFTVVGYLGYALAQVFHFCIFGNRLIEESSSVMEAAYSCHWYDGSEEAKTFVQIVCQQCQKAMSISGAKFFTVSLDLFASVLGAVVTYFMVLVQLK
Briefly: two-electrode voltage clamp, Xenopus oocytes, current-voltage curves. Conditions: agonist; 1 mM odorant.

Test [5] concerns the target T4, Or47a with Drosophila Orco (Drosophila melanogaster, UniProt P81921).
T4 construct: full-length cRNAs co-injected in Xenopus laevis oocytes; heteromer of unknown stoichiometry; with Odorant receptor coreceptor
T4 sequence (P81921 1-385): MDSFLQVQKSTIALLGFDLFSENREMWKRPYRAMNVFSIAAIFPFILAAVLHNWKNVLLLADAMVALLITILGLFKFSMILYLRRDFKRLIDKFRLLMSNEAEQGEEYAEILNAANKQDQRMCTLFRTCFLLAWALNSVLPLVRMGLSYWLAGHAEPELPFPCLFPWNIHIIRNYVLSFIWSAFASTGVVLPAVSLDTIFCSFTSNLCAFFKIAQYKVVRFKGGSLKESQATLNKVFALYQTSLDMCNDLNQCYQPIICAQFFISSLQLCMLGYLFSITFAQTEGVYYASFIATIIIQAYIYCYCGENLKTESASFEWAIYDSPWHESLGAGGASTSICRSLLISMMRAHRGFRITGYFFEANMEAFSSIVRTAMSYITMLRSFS
T4 sequence (Q9VNB5 1-486 partner): T3 sequence (Q9VNB5 1-486 partner)
Described as above. Particulars: agonist; 1 mM odorant.

The values below come from publication PMC3293798, “Amino Acid Residues Contributing to Function of the Heteromeric Insect Olfactory Receptor Complex” (PLoS ONE, 2012).

Changes are numbered by the printed parent chain.

On to `CCC/C=C\C=C\CCCCCCCCCO` [Bombykol], for which the half-maximal effective concentration (EC50) (usually the concentration that produces a half-maximal response) worked out at 190 nM at BmOr-1-BmOrco [1] and 300 nM at BmOr-1-BmOrco [2].

For the molecule `C[N+](C)(C)CCSS(C)(=O)=O` [MTSET], at BmOr-1-BmOrco [3], the “% reduction of bombykol response at 2.5 mM” value is 46%. On to `CCCC(=O)OCC` [ethyl butyrate], for which the “two-electrode voltage clamp, Xenopus oocytes, current-voltage curves” value in test [4] is “channels gated by their cognate ligands (ethyl butyrate, pentyl acetate”. For `CCCCCOC(C)=O` [pentyl acetate], the “two-electrode voltage clamp, Xenopus oocytes, current-voltage curves” value in test [5] is recorded as “channels gated by their cognate ligands (ethyl butyrate, pentyl acetate”.
